Reference: US20190321417A1, “BACTERIAL PROBIOTIC TO DETOXIFY HERBICIDES AND INSECTICIDES” (PRESIDENT AND FELLOWS OF HARVARD COLLEGE, priority 2018, published 2019)

Columns and labels:
Nasonia [1] = test: Herbicide toxicity (LC50) in adult Nasonia from generationally-atrazine exposed and naïve populations; assay type: in vivo, Nasonia virtipennis; details: 24 hr old adults
Excerpt: (§1) FIGS. 3A-3C present data that show atrazine resistance. (FIG. 3A) The median lethal concentration of atrazine to kill half of the population (LC50) in ppm for each generation of the Naïve populations (open circles) and the Atrazine exposed populations (black circles). (FIG. 3B) The median lethal concentration of atrazine to kill half of the population (LC50) in ppm for each generation of the Naïve populations (open circles) and the Atrazine exposed populations (black circles) when grown Germfree, gnotobiotic. Without bacteria, both populations experience increased toxicity of atrazine, over 100 fold greater than normal generations' LC50. (FIG. 3C) LC50 survival of 24 hrs old adult Nasonia virtipennis were sprayed with a sterile PBS solution (squares), S. marcescens TVIT01 (8×10^6 cells/ml, circles), or P. protegens TVIT02 (3×10^8 cells/ml, triangles) and incubated for 6 hr before being fed 100 ppm of atrazine sugar solution (A) or only sugar solution (C), and their survival was calculated 48 hrs later. Three replicates of 50 individuals are for each treated group (Two-tailed t test, *P<0.05).
Toxicity experiments were conducted at a range of concentrations for both atrazine and Glyphosate to test the effect that the new microbiome has on increasing resistance. 50 adults (24 hr old) were put into vials from either the generationally-atrazine exposed populations or the naïve populations and exposed to atrazine or glyphosate at parts per million concentrations of 0 ppm, 10 ppm, 30 ppm, 100 ppm, 200 ppm, 400 ppm, 600 ppm, 800 ppm, 1000 ppm. Mortality was recorded after 0, 24, 48, 72, 96, 120, 168 hours (from atrazine exposure point). These were conducted in concurrent replicate experiments.

Nasonia [2] = test: Atrazine toxicity in germfree, gnotobiotic Nasonia populations; assay type: in vivo, Nasonia virtipennis; details: both exposed and naïve populations, 0-30 ppb atrazine, up to 96 hr
Excerpt: as §1
To test the role of the microbiome as a detoxicant to herbicides, both populations were tested in germfree, gnotobiotic, conditions. Survival was measured when exposed atrazine concentrations of 0, 5 ppb, 10 ppb, 15 ppb, 25 ppb, 30 ppb for up to 96 hr. […]

[3] = generationally-atrazine exposed populations

| SMILES | median lethal concentration to kill half of the population (LC50) (Nasonia [1]; [3]) [ppm] | median lethal concentration to kill half of the population (LC50) (Nasonia [1]; naïve populations) [ppm] | increase in toxicity with bacteria removed, compared to normal (Nasonia [2]) [fold] |
| --- | --- | --- | --- |
| CCNc1nc(Cl)nc(NC(C)C)n1 [atrazine, Atrazine] | 562 | 62 | > 100 |
| O=C(O)CNCP(=O)(O)O [Glyphosate, N-(phosphonomethyl)glycine] | 315 | 148 |  |
